Measurements from patent publication US20240059675A1, “PIPERIDINYLPYRIDINYLCARBONITRILE DERIVATIVES AS INHIBITORS OF GLUTAMINYL-PEPTIDE CYCLOTRANSFERASE AND GLUTAMINYL-PEPTIDE CYCLOTRANSFERASE LIKE PROTEIN” (Boehringer Ingelheim International GmbH, priority 2022, published 2024).

Experiments:
[1] = test system: SIRPα signalling induced by Raji cells; assay: Assay B: SIRPα signalling assay using Raji cells; assay type: cell-based; settings: Homo sapiens, 48 h compound incubation, Jurkat PathHunter SIRPαV1 reporter cells, read-out: Inhibition of SIRPα signalling induced by Raji cells: IC50
Method: (§1) Two cell types are independently used: the Raji cell line (lymphoblast-like human cell line derived from B lymphocytes from a Burkitt's lymphoma patient in 1963) and A549 cells (adenocarcinomic human alveolar basal epithelial cells).
(§2) Test compounds were dissolved in 100% DMSO and serially diluted into a white 384-well microtiter cell culture plate (PerkinElmer #60076780 in case of Raji assay; PDL-coated plates Greiner #781945 in case of A549 assay). 5000 Raji cells (ATCC #CC86) or 5000 A549 cells (ATCC #CCL-185) in Assay Complete Cell Plating reagent 30 (DiscoverX 93-0563R30B) were added per well. The assay plate was incubated for 48 h at 37° C., 95% humidity and 5% CO2. 15000 reporter cells (Jurkat PathHunter SIRPαV1, DiscoverX #93-1135C19) were added to each well, and the plate was incubated for 5 h at 37° C., 95% humidity and 5% CO2. Bioassay reagent 1 of the PathHunter Bioassay detection kit (DiscoverX 93-0001) was added to each well of the plate using a multichannel pipette followed by a 15 min incubation at room temperature. Afterwards bioassay reagent 2 was added followed by 60 min incubation at room temperature (incubation in the dark).
(§3) The analysis of the data was performed using the luminescence signal generated by beta-galactosidase in the PathHunter reporter cell line. The luminescence measurement was done using a Pherastar Multi-Mode Reader. Dose-response curves & IC50 data were calculated with 4-parameter sigmoidal dose response formula.

[2] = test system: SIRPα signalling induced by A549 cells; assay: Assay B: SIRPα signalling assay using A549 cells; assay type: cell-based; settings: Homo sapiens, 48 h compound incubation, Jurkat PathHunter SIRPαV1 reporter cells, read-out: Inhibition of SIRPα signalling induced by A549 cells: IC50
Method: as §1, §2, §3

[3] = Assay C: permeability in CACO-2 cells; assay type: in vitro ADME; settings: human, pH 7.2; for Papp A→B: Caco-2, apical to basolateral; for efflux ratio: Caco-2, permeability B-A / permeability A-B
QPCT = QPCT (Homo sapiens (Human), UniProt Q16769); assay: Assay A: biochemical QPCT activity assay (MALDI-TOF MS, CD47 peptide substrate); settings: 0.5 nM enzyme, 20 μM CD47 peptide substrate; read-out: Inhibition of QPCT: IC50
QPCTL = QPCTL (Homo sapiens (Human), UniProt Q9NXS2); assay: Assay A: biochemical QPCTL activity assay (MALDI-TOF MS, CD47 peptide substrate); settings: 0.5 nM enzyme, 10 μM CD47 peptide substrate; read-out: Inhibition of QPCTL: IC50
QPCTL, sequence (Q9NXS2 whole entry): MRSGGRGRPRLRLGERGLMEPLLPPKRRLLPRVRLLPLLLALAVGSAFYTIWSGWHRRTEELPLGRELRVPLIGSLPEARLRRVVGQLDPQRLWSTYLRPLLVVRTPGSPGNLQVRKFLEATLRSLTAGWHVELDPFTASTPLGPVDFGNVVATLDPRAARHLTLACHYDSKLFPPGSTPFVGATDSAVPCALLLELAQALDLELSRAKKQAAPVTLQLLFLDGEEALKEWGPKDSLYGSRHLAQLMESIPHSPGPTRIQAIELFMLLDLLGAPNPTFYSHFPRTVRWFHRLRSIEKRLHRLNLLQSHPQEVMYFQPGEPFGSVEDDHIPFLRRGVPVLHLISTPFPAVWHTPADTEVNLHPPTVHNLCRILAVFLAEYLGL

QPCT, sequence (Q16769 29-361): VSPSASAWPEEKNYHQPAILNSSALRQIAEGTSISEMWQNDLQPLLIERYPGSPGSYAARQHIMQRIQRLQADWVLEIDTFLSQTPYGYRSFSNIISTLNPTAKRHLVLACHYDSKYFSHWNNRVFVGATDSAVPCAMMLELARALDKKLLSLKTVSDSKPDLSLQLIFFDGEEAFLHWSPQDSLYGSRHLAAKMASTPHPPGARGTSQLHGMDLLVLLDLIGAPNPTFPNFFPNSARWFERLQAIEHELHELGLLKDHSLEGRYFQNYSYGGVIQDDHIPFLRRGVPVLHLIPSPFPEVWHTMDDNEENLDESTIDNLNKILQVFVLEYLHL

Row | SMILES | IC50 [1] [nM] | IC50 [2] [nM] | Papp A→B [3] [×10⁻⁶ cm/s] | IC50 (QPCT) [nM] | IC50 (QPCTL) [nM] | efflux ratio [3]
1 | Cn1cnnc1C1(F)CCN(c2c(C#N)ccnc2-c2ccc(F)nc2)CC1 [Example 1] | 168 | 51 | 28 | – | – | –
2 | Cn1cnnc1C1(C)CCN(c2c(C#N)ccnc2-c2ccc(F)nc2)CC1 [Example 3] | 467 | 29 | 4.9 | 2 | 2 | 8.4
3 | COc1cc(-c2nccc(C#N)c2N2CCC(c3nncn3C)CC2)cnc1F [Example 5] | 350 | 44 | 2 | 13 | 2 | 14
4 | Cn1cnnc1C1(F)CCN(c2c(C#N)ccnc2-c2cnc3nn(C(C)(C)C)cc3c2)CC1 [Example 8] | 25 | 22 | 1.3 | – | – | –
5 | Cn1cnnc1C1CCN(c2c(-c3ccc(F)nc3)ccnc2C#N)CC1 [Example 9] | 1090 | – | 1.8 | 26 | 4 | 7.8
6 | Cn1cnnc1C1(F)CCN(c2c(-c3ccc(F)nc3)ccnc2C#N)CC1 [Example 10] | 352 | – | 11 | 8 | 4 | 5.6
7 | Cn1cnnc1C1(C)CCN(c2c(-c3ccc(F)nc3)ccnc2C#N)CC1 [Example 11] | 1820 | 237 | 3.1 | 11 | 14 | 11.6
8 | Cn1cnnc1C1(F)CCN(c2c(C#N)ccnc2-c2cnn3ncccc23)CC1 [Example 14] | 436 | 116 | 41 | 10 | 11 | 0.6
9 | Cn1cnnc1C1(F)CCN(c2c(C#N)ccnc2-c2cnc(F)c(Cl)c2)CC1 [Example 18] | 482 | 112 | 41 | 23 | 8 | 1.4
10 | Cn1cnnc1C1(F)CCN(c2c(C#N)ccnc2-c2cncc(-n3cccn3)c2)CC1 [Example 19] | 509 | 18 | 4.9 | 10 | 2 | 6.5
11 | Cn1cnnc1C1(F)CCN(c2c(C#N)ccnc2-c2cncc(C3CC3)c2)CC1 [Example 20] | 1950 | 342 | – | 29 | 21 | –
12 | Cn1cnnc1C1(F)CCN(c2c(C#N)ccnc2-c2ccnnc2)CC1 [Example 22] | 653 | 103 | 0.2 | 12 | 3 | 10
13 | Cn1cnnc1C1(F)CCN(c2c(C#N)ccnc2-c2cnc(F)c(F)c2)CC1 [Example 23] | 1660 | 114 | – | 32 | 6 | –
14 | Cn1cnnc1C1(F)CCN(c2c(C#N)ccnc2-c2cn[nH]c2)CC1 [Example 24] | 1770 | 693 | – | 31 | 18 | –
15 | Cn1cnnc1C1(F)CCN(c2c(C#N)ccnc2-c2cnsc2)CC1 [Example 25] | 1610 | 44 | – | 30 | 10 | –
16 | Nc1ncc(C2CCN(c3ncccc3-c3ccc(F)nc3)CC2)s1 [Example 1094, reference compound] | 3240 | – | – | – | – | –
17 | Nc1nnc(C2CCN(c3ncccc3-c3ccc(F)nc3)CC2)s1 [Example 1095, reference compound] | 2200 | 161 | – | – | – | –
18 | Cn1cnnc1C1CCN(c2ncccc2-c2ccc(F)nc2)CC1 [SEN177, reference compound] | 1360 | 214 | – | – | – | –
19 | Cn1cnnc1C1CCN(c2ncccc2-c2cccnc2)CC1 [SEN180, reference compound] | 2970 | 868 | – | – | – | –

The remaining compounds from weak to strong by IC50 [1], led by results:

Row | IC50 [1] [nM] | IC50 [2] [nM] | Papp A→B [3] [×10⁻⁶ cm/s] | IC50 (QPCT) [nM] | IC50 (QPCTL) [nM] | efflux ratio [3] | SMILES
20 | 322 | 22 | – | 3 | 1 | – | Cn1cc2cc(-c3nccc(C#N)c3N3CCC(F)(c4nncn4C)CC3)cnc2n1 [Example 21]
21 | 245 | 60 | 4.8 | 17 | 2 | 3.5 | Cn1cnnc1C1CCN(c2c(C#N)ccnc2-c2ccc(F)nc2)CC1 [Example 2]
22 | 214 | 27 | 18 | 12 | 2 | 3.3 | COc1cc(-c2nccc(C#N)c2N2CCC(F)(c3nncn3C)CC2)cnc1F [Example 7]
23 | 190 | 34 | 34 | 8 | 2 | 2.3 | Cc1cc(-c2nccc(C#N)c2N2CCC(F)(c3nncn3C)CC2)cnc1F [Example 6]
24 | 182 | 38 | 8.5 | 12 | 1 | 5.9 | CC(C)Oc1cc(-c2nccc(C#N)c2N2CCC(c3nncn3C)CC2)cnc1F [Example 4]
25 | 180 | 33 | – | 3 | 2 | – | C=CCOc1cc(-c2nccc(C#N)c2N2CCC(F)(c3nncn3C)CC2)cnc1F [Example 28]
26 | 179 | 21 | 1.7 | 3 | 2 | 27.6 | Cn1cnnc1C1(F)CCN(c2c(C#N)ccnc2-c2cnc3nn(C4(C)CC(F)(F)C4)cc3c2)CC1 [Example 31]
27 | 176 | 39 | 36 | 5 | 3 | 2 | Cn1cnnc1C1(F)CCN(c2c(C#N)ccnc2-c2cnc(F)c(OC3CC3)c2)CC1 [Example 27]
28 | 103 | 7 | 45 | – | – | 1.7 | Cn1cnnc1C1(F)CCN(c2c(C#N)ccnc2-c2cnc(F)c(OCC3CC3)c2)CC1 [Example 26]
29 | 92 | 49 | 38 | 8 | 4 | 1.3 | Cn1cnnc1C1(F)CCN(c2c(C#N)cc(C(F)(F)F)nc2-c2ccc(F)nc2)CC1 [Example 17]
30 | 87 | 47 | 0.5 | 2 | 2 | 54.9 | Cn1cnnc1C1(F)CCN(c2c(C#N)ccnc2-c2cnc3nn(C4(C(F)(F)F)CC4)cc3c2)CC1 [Example 30]
31 | 86 | 8 | 40 | 4 | 1 | 1.7 | Cc1cc(C#N)c(N2CCC(F)(c3nncn3C)CC2)c(-c2ccc(F)nc2)n1 [Example 16]
32 | 81 | 13 | 2.5 | – | – | 15.2 | Cn1cnnc1C1(F)CCN(c2c(C#N)ccnc2-c2cnc3nn(C(C)(C)C(F)(F)F)cc3c2)CC1 [Example 29]
33 | 65 | 22 | 1 | 1 | 1 | 35 | Cn1cnnc1C1(F)CCN(c2c(C#N)ccnc2-c2cnc3nc(C(C)(C)C)cn3c2)CC1 [Example 13]
34 | 59 | 33 | 0.9 | 1 | 1 | 14.1 | Cn1cnnc1C1(F)CCN(c2c(C#N)ccnc2-c2cnc3nc(C(F)(F)F)cn3c2)CC1 [Example 15]
35 | 53 | 31 | 2.5 | 2 | 2 | 11.2 | Cn1cnnc1C1(F)CCN(c2c(C#N)ccnc2-c2cnc3nnc(C(C)(C)C)n3c2)CC1 [Example 12]
36 | 6 | 3 | 3.5 | 1 | 1 | 12.6 | Cn1cnnc1C1(F)CCN(c2c(C#N)ccnc2-c2cnc3nn(C(C)(C)c4ccc(F)cc4)cc3c2)CC1 [Example 32]
